For 21 molecules, IC50 and melting point results are on record in US11052092B2, “N-{[2-(piperidin-1-yl)phenyl](phenyl)methyl}-2-(3-oxo-3,4-dihydro-2H-1,4-benzoxazin-7-yl)acetamide derivatives and related compounds as ROR-gamma modulators for treating autoimmune diseases” (Genfit, priority 2017, dated 2021).

Each structure is given as a SMILES string.

Data set [1] deals with T1, RORγt ligand-binding domain (RORγt-LBD) (Homo sapiens, UniProt P51449).
T1 construct: 20 nM recombinantly expressed RORγ-LBD fused to GST
T1 sequence (P51449 269-508 limits assumed): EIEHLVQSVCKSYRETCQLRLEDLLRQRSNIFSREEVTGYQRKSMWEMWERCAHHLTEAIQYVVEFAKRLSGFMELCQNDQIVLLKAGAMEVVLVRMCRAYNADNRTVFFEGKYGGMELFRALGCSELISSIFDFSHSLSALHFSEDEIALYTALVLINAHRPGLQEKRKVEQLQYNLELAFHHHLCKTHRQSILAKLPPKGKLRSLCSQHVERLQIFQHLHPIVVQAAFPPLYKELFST
Nature of the data set: Time-resolved FRET (TR-FRET) RORγt coactivator assay. The settings on record: GST-RORγ-LBD, biotinylated RIP140 peptide, 2 hours at room temperature. The source says:
Time-resolved FRET (TR-FRET) RORγt coactivator assay was used to identify RORγ modulator compounds with ligand-dependent coactivator displacement. The assay uses a d2-labeled anti-GST antibody, synthetic N-terminally biotinylated peptide which is derived from nuclear receptor coactivator protein RIP140, and a RORγt ligand-binding domain (RORγt-LBD) that is tagged with glutathione-S-transferase (GST). The influence of compounds on the RORγ-peptide interaction relies on the binding dependent energy transfer from a donor to an acceptor fluorophor attached to the binding partner of interest. […] For reduction of background from compound fluorescence, TR-FRET method makes use of generic fluorophore labels and time resolved detection.
The assays were done in a final volume of 20 μl in a 384 well plate in a CHAPS buffer (2 mM CHAPS; 1 mM DTT, 2 mM EDTA; 0.1% BSA), containing 20 nM recombinantly expressed RORγ-LBD fused to GST, 30 nM N-terminally biotinylated peptide, 1 nM streptavidin-terbium conjugate and 20 nM d2 labeled-anti-GST. Test compounds were diluted using 10 mM stock solution. The range of the final compound concentrations used in this test was from 0.3 nM to 30 μM (logarithmic scale). DMSO content of the samples was kept at 1%. The assay was equilibrated for 2 hours in the dark at room temperature in 384 well plates (Falcon). The signal was detected by an Ultra384 reader (TECAN). […] Compounds that promote coactivator displacement induce a concentration-dependent decrease in time-resolved fluorescent signal. Data were collected and analyzed using GraphPad Prism software (GraphPad Software V5.02, San Diego Calif. USA). IC50 in μM and Emax in % were reported for each compound.
Background: Time-resolved FRET reads energy transfer from a long-lived donor to a nearby acceptor.

The next data set concerns the target T2, human RORγt (Homo sapiens, UniProt P51449).
T2 construct: the full-length cDNA of human RORγt; expressed in transfected cells; host or cells: COS-7 (monkey kidney)
T2 sequence (P51449 1-497 isoform P51449-2): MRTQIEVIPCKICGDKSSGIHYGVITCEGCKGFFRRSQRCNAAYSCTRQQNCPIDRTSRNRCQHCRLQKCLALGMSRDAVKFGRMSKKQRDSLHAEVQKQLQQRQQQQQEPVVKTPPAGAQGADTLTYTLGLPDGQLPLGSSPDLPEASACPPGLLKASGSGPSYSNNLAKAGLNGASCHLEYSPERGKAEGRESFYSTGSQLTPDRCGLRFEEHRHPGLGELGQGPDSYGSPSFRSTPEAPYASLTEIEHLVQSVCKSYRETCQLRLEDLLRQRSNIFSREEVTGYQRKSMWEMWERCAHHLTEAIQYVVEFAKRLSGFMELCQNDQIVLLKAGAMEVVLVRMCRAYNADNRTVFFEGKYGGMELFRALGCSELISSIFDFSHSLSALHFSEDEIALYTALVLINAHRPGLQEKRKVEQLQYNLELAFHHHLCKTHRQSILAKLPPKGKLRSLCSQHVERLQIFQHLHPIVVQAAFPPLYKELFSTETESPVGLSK
Nature of the data set: RORE Luciferase/RORγt transactivation assay. The format is cell-based. The following applies: COS-7 cells transfected with human IL-17 promoter luciferase reporter and RORγt plasmid; 20 h with compound; read-out: IC50, RORγt activity inhibition. The gist of the method: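 Transactivation read-out: luminescence (Steady-Glo, 30 min at room temperature) from COS-7 cells carrying a RORγt expression plasmid plus a 4.3 kb IL-17 promoter luciferase reporter. Compound exposure was in serum-free DMEM with 0.3% DMSO final. Reported values are IC50 (μM) and Emax (%).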
Background: Reporter assays use an easily measured gene product as a stand-in for the process of interest.

As a reminder, the IC50 is the midpoint of a concentration-inhibition curve. `O=C1COc2cc(CC(=O)NC(c3ccccc3)c3ccccc3N3CCOCC3)ccc2N1` (centres unmarked) [Cpd. 7, N-{[2-(morpholin-4-yl)phenyl](phenyl)methyl}-2-(3-oxo-3,4-dihydro-2H-1,4-benzoxazin-7-yl)acetamide]: the IC50 in data set [1] was 100 to 1000 nM; on human RORγt, > 10000 nM.

As to `Cc1ccc(C(NC(=O)Cc2ccc3[nH]c(=O)cc(C)c3c2)c2ccccc2)c(C)c1` (centres unmarked) [Cpd. 9, N-[(2,4-dimethylphenyl)(phenyl)methyl]-2-(4-methyl-2-oxo-1,2-dihydroquinolin-6-yl)acetamide], the IC50 fell in the range of 10 to 100 nM in data set [1] and 1000 to 10000 nM at human RORγt. Molecule `O=C(Cc1ccc2[nH]c(=O)c(=O)[nH]c2c1)NC(c1ccccc1)c1ccccc1N1CCCCC1` (centres unmarked) [Cpd. 12, 2-(2,3-dioxo-1,2,3,4-tetrahydroquinoxalin-6-yl)-N-{phenyl[2-(piperidin-1-yl)phenyl]methyl}acetamide] yielded a half-inhibitory concentration (IC50) in data set [1] of 1000 to 10000 nM. For the molecule `O=C1Cc2cc(CC(=O)NC(c3ccccc3)c3ccccc3N3CCCCC3)ccc2N1` (centres unmarked) [Cpd. 15, 2-(2-oxo-2,3-dihydro-1H-indol-5-yl)-N-{phenyl[2-(piperidin-1-yl)phenyl]methyl}acetamide], the IC50 in data set [1] fell in the range of 10 to 100 nM; at human RORγt, 1000 to 10000 nM. Consider `Cc1ccc(C(NC(=O)Cc2ccc3c(c2)CC(=O)N3)c2ccccc2)c(N2CCOCC2)c1` (centres unmarked) [Cpd. 18, N-{[4-methyl-2-(morpholin-4-yl)phenyl](phenyl)methyl}-2-(2-oxo-2,3-dihydro-1H-indol-5-yl)acetamide], for which the concentration for half-maximal inhibition (IC50) in data set [1] fell in the range of 100 to 1000 nM; at human RORγt, 1000 to 10000 nM. For the molecule `CC1(C)Oc2cc(CC(=O)NC(c3ccccc3)c3ccccc3N3CCCCC3)ccc2NC1=O` (centres unmarked) [Cpd. 19, 2-(2,2-dimethyl-3-oxo-3,4-dihydro-2H-1,4-benzoxazin-7-yl)-N-{phenyl[2-(piperidin-1-yl)phenyl]methyl}acetamide], in data set [1], the IC50 lay within 1000 to 10000 nM.

For the molecule `O=C(Cc1ccc2c(c1)C(=O)C(=O)N2)NC(c1ccccc1)c1ccccc1N1CCCCC1` (centres unmarked) [Cpd. 20, 2-(2,3-dioxo-2,3-dihydro-1H-indol-5-yl)-N-{phenyl[2-(piperidin-1-yl)phenyl]methyl}acetamide], the IC50 (in data set [1]; at human RORγt) was 1000 to 10000 nM throughout.

For the molecule `Cc1ccc(C(NC(=O)Cc2ccc3c(c2)OC(C)(C)C(=O)N3)c2ccccc2)c(N2CCOCC2)c1` (centres unmarked) [Cpd. 21, 2-(2,2-dimethyl-3-oxo-3,4-dihydro-2H-1,4-benzoxazin-7-yl)-N-{[4-methyl-2-(morpholin-4-yl)phenyl](phenyl)methyl}acetamide], the IC50 (in data set [1]; on human RORγt) was 100 to 1000 nM each time. For `COc1ccc(C(NC(=O)Cc2ccc3c(c2)C(=O)C(=O)N3)c2ccccc2)c(N2CCCCC2)c1` (centres unmarked) [Cpd. 22, 2-(2,3-dioxo-2,3-dihydro-1H-indol-5-yl)-N-{[4-methoxy-2-(piperidin-1-yl)phenyl](phenyl)methyl}acetamide], the IC50 in data set [1] lay in the range of 100 to 1000 nM; at human RORγt it was 1000 to 10000 nM. On the same counts, the results for `O=C(Cc1ccc2c(c1)CS(=O)(=O)N2)NC(c1ccccc1)c1ccccc1N1CCCCC1` (centres unmarked) [Cpd. 26, 2-(2,2-dioxo-1,3-dihydro-2,1-benzothiazol-5-yl)-N-{phenyl[2-(piperidin-1-yl)phenyl]methyl}acetamide] are 10 to 100 nM and 1000 to 10000 nM. On the same counts, the results for `COc1ccc(C(NC(=O)Cc2ccc3c(c2)OC(C)(C)C(=O)N3)c2ccc(C)o2)c(N2CCOCC2)c1` (centres unmarked) [Cpd. 30, 2-(2,2-dimethyl-3-oxo-3,4-dihydro-2H-1,4-benzoxazin-7-yl)-N-{[4-methoxy-2-(morpholin-4-yl)phenyl](5-methylfuran-2-yl)methyl}acetamide] are 100 to 1000 nM and 1000 to 10000 nM. Taken in the same sequence, the figures for `CCc1ccc(C(NC(=O)Cc2ccc3c(c2)OCC(=O)N3)c2ccc(C)cc2C)o1` (centres unmarked) [Cpd. 32, N-[(2,4-dimethylphenyl)(5-ethylfuran-2-yl)methyl]-2-(3-oxo-3,4-dihydro-2H-1,4-benzoxazin-7-yl)acetamide] were 1000 to 10000 nM and 100 to 1000 nM.

On to `COc1ccc(C(NC(=O)Cc2ccc3c(c2)OCC(=O)N3)c2ccc(C)o2)c(Br)c1` (centres unmarked) [Cpd. 34, N-[(2-bromo-4-methoxyphenyl)(5-methylfuran-2-yl)methyl]-2-(3-oxo-3,4-dihydro-2H-1,4-benzoxazin-7-yl)acetamide], for which the IC50 (in data set [1]; at human RORγt) was 100 to 1000 nM each time. As for `Cc1ccc(C(NC(=O)Cc2ccc3c(c2)C(C)(C)C(=O)N3C)c2ccc(C)o2)c(N2CCCCC2)c1` (centres unmarked) [Cpd. 40, N-{[4-methyl-2-(piperidin-1-yl)phenyl](5-methylfuran-2-yl)methyl}-2-(1,3,3-trimethyl-2-oxo-2,3-dihydro-1H-indol-5-yl)acetamide], the IC50 (in data set [1]; on human RORγt) was 100 to 1000 nM in each case. On to `Cc1ccc(C(NC(=O)Cc2ccc3c(c2)C(=Cc2c(C)noc2C)C(=O)N3)c2ccc(C)o2)c(N2CCCCC2)c1` (centres unmarked) [Cpd. 43, 2-{3-[(dimethyl-1,2-oxazol-4-yl)methylidene]-2-oxo-2,3-dihydro-1H-indol-5-yl}-N-{[4-methyl-2-(piperidin-1-yl)phenyl](5-methylfuran-2-yl)methyl}acetamide], for which the IC50 (in data set [1]; on human RORγt) was 100 to 1000 nM each time. Consider `Cc1ccc(C(NC(=O)Cc2ccc3c(c2)C(=O)C(=O)N3C)c2ccc(C)o2)c(N2CCCCC2)c1` (centres unmarked) [Cpd. 45, 2-(1-methyl-2,3-dioxo-2,3-dihydro-1H-indol-5-yl)-N-{[4-methyl-2-(piperidin-1-yl)phenyl](5-methylfuran-2-yl)methyl}acetamide], for which the IC50 (in data set [1]; on human RORγt) was 100 to 1000 nM throughout. The melting point is the temperature, or range, at which the solid turns liquid. In turn, `Cc1ccc(C(NC(=O)Cc2ccc3c(c2)/C(=C\C(C)C)C(=O)N3)c2ccc(C)o2)c(N2CCCCC2)c1` (centres unmarked) [Cpd. 48, N-{[4-methyl-2-(piperidin-1-yl)phenyl](5-methylfuran-2-yl)methyl}-2-[(3E)-3-(2-methylpropylidene)-2-oxo-2,3-dihydro-1H-indol-5-yl]acetamide] yielded a melting point of 91 °C. Also, the IC50 in data set [1] fell in the range of 100 to 1000 nM. Further, the IC50 at human RORγt was 100 to 1000 nM. Consider `Cc1ccc(C(NC(=O)Cc2cccc3c2CN(S(C)(=O)=O)C3)c2ccc(C)o2)c(N2CCCCC2)c1` (centres unmarked) [Cpd. 50, 2-(2-methanesulfonyl-2,3-dihydro-1H-isoindol-4-yl)-N-{[4-methyl-2-(piperidin-1-yl)phenyl](5-methylfuran-2-yl)methyl}acetamide], for which the IC50 lay within 1000 to 10000 nM in data set [1] and 100 to 1000 nM at human RORγt.

For the molecule `Cc1ccc(C(NC(=O)C2(c3ccc4c(c3)CS(=O)(=O)N4)CC2)c2ccc(C)o2)c(C)c1` (centres unmarked) [Cpd. 63, N-[(2,4-dimethylphenyl)(5-methylfuran-2-yl)methyl]-1-(2,2-dioxo-1,3-dihydro-2,1-benzothiazol-5-yl)cyclopropane-1-carboxamide], the IC50 in data set [1] is < 10 nM; on human RORγt, 10 to 100 nM. Taken in the same sequence, the figures for `Cc1ccc(C(NC(=O)Cc2ccc3c(ccn3CCC(=O)OC(C)(C)C)c2)c2ccc(C)o2)c(C)c1` (centres unmarked) [Cpd. 99, tert-butyl 3-[5-({[(2,4-dimethylphenyl)(5-methylfuran-2-yl)methyl]carbamoyl}methyl)-1H-indol-1-yl]propanoate] were 10 to 100 nM and 100 to 1000 nM. Taken in the same sequence, the figures for `Cc1ccc(C(NC(=O)Cc2ccc3c(ccn3CCC(=O)OC(C)(C)C)c2)c2ccc(C)o2)c(Br)c1` (centres unmarked) [Cpd. 100, tert-butyl 3-[5-({[(2-bromo-4-methylphenyl)(5-methylfuran-2-yl)methyl]carbamoyl}methyl)-1H-indol-1-yl]propanoate] were 100 to 1000 nM and 100 to 1000 nM.
